In US20250289802A1, “3-(1-OXO-5-(PIPERIDIN-4-YL)ISOINDOLIN-2-YL)PIPERIDINE-2,6-DIONE DERIVATIVES AND USES THEREOF” (NOVARTIS AG, priority 2019, published 2025):

Target: IKZF2 (Helios) (Homo sapiens, UniProt Q96SW2+Q9UKS7)
Experiment: Prolabel quantification of IKZF2 protein levels in 293GT cells
Type: cell-based
Settings: not given
Description: The Prolabel system from DiscoverX was used to develop high-throughput and quantitative assays to measure changes in IKZF1 and IKZF2 protein levels in response to compounds. The prolabel tag was derived from the alpha fragment of beta galactosidase and has the following protein sequence: mssnslavvlqrrdwenpgvtglnrlaahppfaswrnseeartdrpsqqlrsinge. The complementary fragment of beta-galactosidase (from DiscoverX), is added to the prolabel tag to form an active beta galactosidase enzyme whose activity can be precisely measured. In this way, the levels of a fusion protein with the prolabel tag can be quantified in cell lysates.
Lentiviral vectors, based on the Invitrogen pLenti6.2/V5 DEST backbone, were constructed that placed the prolabel tag upstream of IKZF1, IKZF2 or GSPT1 and expressed the fusion protein from a CMV promoter.
To ensure moderate and consistent expression of the prolabel fusion proteins across all cells in the population, stable cell lines were constructed from cells expressing a single copy of the construct. Lentivirus packaged with the constructs was made using the Virapower kit from Invitrogen.
The levels of prolabel tagged fusion proteins in compound treated cell lines were measured as follows: Day 1, Cells were diluted to 1.0×10^6 cells/ml in normal growth medium. 17.5 μL of cells were plated in each well of a solid white 384 well plate. Plates were incubated overnight in a 37° C. tissue culture incubator.
Day 2, Serial dilutions of compounds were made in 384 well plates from 10 mM stocks. 15 μL of DMSO was added to each well of a 384 well plate. In the first column, 15 μL of stock compound was added. The solution was mixed and 15 μL was transferred to the next column. This was repeated until 20 two-fold dilutions were prepared. 2.5 μL of diluted compounds were transferred into 60 μL of cell culture medium in another 384 well plate, and mixed well. 2.5 μL of this mixture was added to the plated cells. The final DMSO concentration was 0.5% and the highest concentration of compound was 50 μM. Plates were incubated overnight (e.g., about 14 h, 18 h, or 24 h) in a 37° C. tissue culture incubator.
Day 3, Plates were removed from the incubator and allowed to equilibrate at rt for 30 minutes. Prolabel substrate (DiscoverX PathHunter Prolabel Detection Kit, User manual: 93-0180) was added as described by the manufacturers protocols. Plates were incubated at rt for three hours and luminescence was read using an Envision reader (Perkin Elmer) Data was analyzed and visualized using the Spotfire software package.

IKZF2 (Helios), sequence (Q9UKS7 whole entry): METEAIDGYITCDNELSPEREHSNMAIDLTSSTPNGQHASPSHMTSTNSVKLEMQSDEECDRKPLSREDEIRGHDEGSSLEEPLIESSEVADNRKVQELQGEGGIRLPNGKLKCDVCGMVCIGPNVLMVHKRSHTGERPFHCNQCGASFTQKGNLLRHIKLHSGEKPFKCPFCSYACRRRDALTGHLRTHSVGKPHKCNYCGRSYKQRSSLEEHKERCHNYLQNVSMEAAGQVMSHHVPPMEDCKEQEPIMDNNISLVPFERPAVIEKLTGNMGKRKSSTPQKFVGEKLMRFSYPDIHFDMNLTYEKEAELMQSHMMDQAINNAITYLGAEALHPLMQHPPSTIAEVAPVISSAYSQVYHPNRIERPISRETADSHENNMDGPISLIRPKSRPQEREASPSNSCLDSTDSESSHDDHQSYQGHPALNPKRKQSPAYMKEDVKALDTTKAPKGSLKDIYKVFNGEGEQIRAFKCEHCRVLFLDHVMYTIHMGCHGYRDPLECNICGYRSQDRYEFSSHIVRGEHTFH
IKZF2 (Helios), sequence (Q96SW2 whole entry): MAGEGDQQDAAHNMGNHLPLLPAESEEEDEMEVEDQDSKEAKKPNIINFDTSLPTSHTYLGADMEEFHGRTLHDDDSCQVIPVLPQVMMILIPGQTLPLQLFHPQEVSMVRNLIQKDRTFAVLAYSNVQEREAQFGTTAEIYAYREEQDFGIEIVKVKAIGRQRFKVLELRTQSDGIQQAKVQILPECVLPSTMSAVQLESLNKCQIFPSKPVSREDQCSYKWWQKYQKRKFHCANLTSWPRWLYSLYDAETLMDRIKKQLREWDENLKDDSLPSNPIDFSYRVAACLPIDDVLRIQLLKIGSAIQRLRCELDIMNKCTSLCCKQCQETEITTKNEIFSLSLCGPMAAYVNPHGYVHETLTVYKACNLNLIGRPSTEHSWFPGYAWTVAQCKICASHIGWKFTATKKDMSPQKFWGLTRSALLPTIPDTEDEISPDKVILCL
IKZF2 (Helios), sequence (Q16531 whole entry partner): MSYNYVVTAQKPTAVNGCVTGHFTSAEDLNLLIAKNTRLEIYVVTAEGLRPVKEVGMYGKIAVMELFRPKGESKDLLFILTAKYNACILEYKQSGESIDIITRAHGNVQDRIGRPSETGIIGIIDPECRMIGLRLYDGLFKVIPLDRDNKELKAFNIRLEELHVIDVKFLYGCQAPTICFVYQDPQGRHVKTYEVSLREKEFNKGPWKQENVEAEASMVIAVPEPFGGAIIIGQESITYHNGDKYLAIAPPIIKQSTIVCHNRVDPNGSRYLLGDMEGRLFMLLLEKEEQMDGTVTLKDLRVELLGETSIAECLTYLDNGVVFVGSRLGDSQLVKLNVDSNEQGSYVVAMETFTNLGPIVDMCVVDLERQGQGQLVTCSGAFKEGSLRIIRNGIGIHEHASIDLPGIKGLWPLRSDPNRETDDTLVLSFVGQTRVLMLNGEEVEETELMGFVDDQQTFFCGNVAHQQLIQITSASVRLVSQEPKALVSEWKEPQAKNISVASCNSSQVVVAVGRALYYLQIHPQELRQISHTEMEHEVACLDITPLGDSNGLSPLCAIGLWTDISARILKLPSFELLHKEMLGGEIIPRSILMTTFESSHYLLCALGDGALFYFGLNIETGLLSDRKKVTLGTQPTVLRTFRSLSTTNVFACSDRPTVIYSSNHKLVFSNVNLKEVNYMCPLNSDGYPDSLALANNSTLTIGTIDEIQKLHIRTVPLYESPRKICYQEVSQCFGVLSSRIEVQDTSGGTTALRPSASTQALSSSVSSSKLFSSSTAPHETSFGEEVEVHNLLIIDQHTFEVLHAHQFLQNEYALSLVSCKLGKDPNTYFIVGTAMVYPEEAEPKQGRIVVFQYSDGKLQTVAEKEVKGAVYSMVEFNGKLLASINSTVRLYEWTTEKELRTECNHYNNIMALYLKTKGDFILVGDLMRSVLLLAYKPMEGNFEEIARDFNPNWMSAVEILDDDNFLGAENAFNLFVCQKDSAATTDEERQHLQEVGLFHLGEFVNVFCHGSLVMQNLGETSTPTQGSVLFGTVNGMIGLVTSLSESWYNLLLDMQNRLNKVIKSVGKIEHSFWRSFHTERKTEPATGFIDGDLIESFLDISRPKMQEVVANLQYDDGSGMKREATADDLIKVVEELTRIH

With CC1CC(c2ccc3c(c2)CN(C2CCC(=O)NC2=O)C3=O)CC(C)N1Cc1ccccc1 (centres unmarked) [Compound I-2, 3-(5-(1-benzyl-2,6-dimethylpiperidin-4-yl)-1-oxoisoindolin-2-yl)piperidine-2,6-dione] the “IKZF2 % protein reduction at 30 uM” value was 35% at.

In the case of O=C1CCC(N2Cc3cc(C4CCN(Cc5ccc(=O)[nH]c5)CC4)ccc3C2=O)C(=O)N1 (centres unmarked) [Compound I-1, 3-(1-oxo-5-(1-((6-oxo-1,6-dihydropyridin-3-yl)methyl)piperidin-4-yl)isoindolin-2-yl)piperidine-2,6-dione], the “IKZF2 % protein reduction at 10 μM, 24 h” value is reported as 70%.

Same assay, conditions: 10 μM, 24 h, 293GT cells

First: CC(C1CCOCC1)N1CCC(c2ccc3c(c2)CN(C2CCC(=O)NC2=O)C3=O)CC1 (centres unmarked) [Compound I-30, 3-(1-oxo-5-(1-(1-(tetrahydro-2H-pyran-4-yl)ethyl)piperidin-4-yl)isoindolin-2-yl)piperidine-2,6-dione]
Second: COC1CCC(N2CCC(c3ccc4c(c3)CN(C3CCC(=O)NC3=O)C4=O)CC2)CC1 (centres unmarked) [Compound I-36, 3-(5-(1-(4-methoxycyclohexyl)piperidin-4-yl)-1-oxoisoindolin-2-yl)piperidine-2,6-dione]
The “IKZF2 % protein reduction at 10 μM, 24 h” value of the first is higher: 80% for the first, 74% for the second.

Compared with O=C1CCC(N2Cc3cc(C4CCN(CC5CCC(CF)CC5)CC4)ccc3C2=O)C(=O)N1 (centres unmarked) [Compound I-10, 3-(5-(1-((4-(fluoromethyl)cyclohexyl)methyl)piperidin-4-yl)-1-oxoisoindolin-2-yl)piperidine-2,6-dione], N#C[C@H]1CC[C@H](CN2CCC(c3ccc4c(c3)CN(C3CCC(=O)NC3=O)C4=O)CC2)CC1 (some centres unmarked) [Compound I-3, (1r,4r)-4-((4-(2-(2,6-dioxopiperidin-3-yl)-1-oxoisoindolin-5-yl)piperidin-1-yl)methyl)cyclohexane-1-carbonitrile] is lower in “IKZF2 % protein reduction at 10 μM, 24 h” value: 75% for the first, 60% for the second.

Going from CCC(c1cnccn1)N1CCC(c2ccc3c(c2)CN(C2CCC(=O)NC2=O)C3=O)CC1 (centres unmarked) [Compound I-33, 3-(1-oxo-5-(1-(1-(pyrazin-2-yl)propyl)piperidin-4-yl)isoindolin-2-yl)piperidine-2,6-dione] to O=C1CCC(N2Cc3cc(C4CCN(Cc5cnccn5)CC4)ccc3C2=O)C(=O)N1 (centres unmarked) [Compound I-14, 3-(1-oxo-5-(1-(pyrazin-2-ylmethyl)piperidin-4-yl)isoindolin-2-yl)piperidine-2,6-dione], the “IKZF2 % protein reduction at 10 μM, 24 h” value falls from 62% to 55%.

First: CCOc1ccc(CN2CCC(c3ccc4c(c3)CN(C3CCC(=O)NC3=O)C4=O)CC2)nc1 (centres unmarked) [Compound I-5, 3-(5-(1-((5-ethoxypyridin-2-yl)methyl)piperidin-4-yl)-1-oxoisoindolin-2-yl)piperidine-2,6-dione]
Second: COc1ccc(CN2CCC(c3ccc4c(c3)CN(C3CCC(=O)NC3=O)C4=O)CC2)nc1 (centres unmarked) [Compound I-6, 3-(5-(1-((5-methoxypyridin-2-yl)methyl)piperidin-4-yl)-1-oxoisoindolin-2-yl)piperidine-2,6-dione]
The “IKZF2 % protein reduction at 10 μM, 24 h” value of the first is higher: 60% for the first, 50% for the second.

Compared with Cc1ncc(CN2CCC(c3ccc4c(c3)CN(C3CCC(=O)NC3=O)C4=O)CC2)cn1 (centres unmarked) [Compound I-17, 3-(5-(1-((2-methylpyrimidin-5-yl)methyl)piperidin-4-yl)-1-oxoisoindolin-2-yl)piperidine-2,6-dione], COc1ccc(CN2CCC(c3ccc4c(c3)CN(C3CCC(=O)NC3=O)C4=O)CC2)cn1 (centres unmarked) [Compound I-7, 3-(5-(1-((6-methoxypyridin-3-yl)methyl)piperidin-4-yl)-1-oxoisoindolin-2-yl)piperidine-2,6-dione] is higher in “IKZF2 % protein reduction at 10 μM, 24 h” value: 50% for the first, 80% for the second.

First: O=C1CCC(N2Cc3cc(C4CCN(Cc5cccnn5)CC4)ccc3C2=O)C(=O)N1 (centres unmarked) [Compound I-15, 3-(1-oxo-5-(1-(pyridazin-3-ylmethyl)piperidin-4-yl)isoindolin-2-yl)piperidine-2,6-dione]
Second: O=C1CCC(N2Cc3cc(C4CCN(Cc5ccncn5)CC4)ccc3C2=O)C(=O)N1 (centres unmarked) [Compound I-16, 3-(1-oxo-5-(1-(pyrimidin-4-ylmethyl)piperidin-4-yl)isoindolin-2-yl)piperidine-2,6-dione]
The “IKZF2 % protein reduction at 10 μM, 24 h” value of the first is lower: 40% for the first, 50% for the second.

Compared with CCn1cc(C(C)N2CCC(c3ccc4c(c3)CN(C3CCC(=O)NC3=O)C4=O)CC2)cn1 (centres unmarked) [Compound I-31, 3-(5-(1-(1-(1-ethyl-1H-pyrazol-4-yl)ethyl)piperidin-4-yl)-1-oxoisoindolin-2-yl)piperidine-2,6-dione], CCC(c1cnn(CC)c1)N1CCC(c2ccc3c(c2)CN(C2CCC(=O)NC2=O)C3=O)CC1 (centres unmarked) [Compound I-32, 3-(5-(1-(1-(1-ethyl-1H-pyrazol-4-yl)propyl)piperidin-4-yl)-1-oxoisoindolin-2-yl)piperidine-2,6-dione] is lower in “IKZF2 % protein reduction at 10 μM, 24 h” value: 70% for the first, 62% for the second.

Going from CC1=CCC(CN2CCC(c3ccc4c(c3)CN(C3CCC(=O)NC3=O)C4=O)CC2)CC1 (centres unmarked) [Compound I-13, 3-(5-(1-((4-methylcyclohex-3-en-1-yl)methyl)piperidin-4-yl)-1-oxoisoindolin-2-yl)piperidine-2,6-dione] to O=C1CCC(N2Cc3cc(C4CCN(Cc5ccnnc5)CC4)ccc3C2=O)C(=O)N1 (centres unmarked) [Compound I-18, 3-(1-oxo-5-(1-(pyridazin-4-ylmethyl)piperidin-4-yl)isoindolin-2-yl)piperidine-2,6-dione], the “IKZF2 % protein reduction at 10 μM, 24 h” value falls from 80% to 40%.

Compared with CCOc1ccc(CN2CCC(c3ccc4c(c3)CN(C3CCC(=O)NC3=O)C4=O)CC2)cn1 (centres unmarked) [Compound I-8, 3-(5-(1-((6-ethoxypyridin-3-yl)methyl)piperidin-4-yl)-1-oxoisoindolin-2-yl)piperidine-2,6-dione], O=C1CCC(N2Cc3cc(C4CCN(CCn5cccn5)CC4)ccc3C2=O)C(=O)N1 (centres unmarked) [Compound I-11, 3-(5-(1-(2-(1H-pyrazol-1-yl)ethyl)piperidin-4-yl)-1-oxoisoindolin-2-yl)piperidine-2,6-dione] is lower in “IKZF2 % protein reduction at 10 μM, 24 h” value: 70% for the first, 60% for the second.

In the case of O=C1CCC(N2Cc3cc(C4CCN(C5CCc6ncccc65)CC4)ccc3C2=O)C(=O)N1 (centres unmarked) [Compound I-35, 3-(5-(1-(6,7-dihydro-5H-cyclopenta[b]pyridin-5-yl)piperidin-4-yl)-1-oxoisoindolin-2-yl)piperidine-2,6-dione], the “IKZF2 % protein reduction at 10 μM, 24 h” value is reported as 80%.

Target: T1, human TGF-β2 (Homo sapiens, UniProt P61812)
T1 sequence (P61812 303-414 limits assumed): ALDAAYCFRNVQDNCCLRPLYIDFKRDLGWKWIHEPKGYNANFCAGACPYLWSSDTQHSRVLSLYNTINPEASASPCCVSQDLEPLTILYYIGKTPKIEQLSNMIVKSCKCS
Experiment: not given
Settings: Biacore; cited from earlier work

In the case of “XOMA 089: fully human monoclonal antibody that specifically binds and neutralizes TGF-beta 1 and 2 ligands”, the Kd is listed as 67.3 µM.

Target: T2, human TGF-β3 (Homo sapiens, UniProt P10600)
T2 sequence (P10600 301-412 limits assumed): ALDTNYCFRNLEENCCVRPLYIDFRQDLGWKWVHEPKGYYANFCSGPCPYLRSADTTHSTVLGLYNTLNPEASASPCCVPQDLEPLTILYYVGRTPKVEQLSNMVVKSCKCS
Experiment: not given
Settings: Biacore; cited from earlier work

In the case of “XOMA 089: fully human monoclonal antibody that specifically binds and neutralizes TGF-beta 1 and 2 ligands”, the Kd is listed as 948 µM.
